The target of one data set is human MT1 receptor (Homo sapiens, UniProt P48039). The data set is described as follows: Activation of human MT1 receptor in receptor-expressing HEK293 cells (intracellular Ca2+, FLIPR). It is filed as cell-based. Conditions: for Emax: HEK293, maximum reaction by ramelteon taken as 100%, solvent only 0%, read-out: MT1 Emax (%); for EC50: HEK293 cells stably expressing human MT1 and Gq/i chimeric G-protein, intracellular Ca2+ by FLIPR. The procedure: (§1) (1) Isolation of Human MT1 and MT2 Receptor and Construction of Expression Vector
(§2) A human MT1 receptor gene (GenBank Accession No.: NM_005958.3) and a human MT2 receptor gene (GenBank Accession No.: NM_005959.3) were each introduced into an expression vector pCDNA3.1/Zeo (Invitrogen, Inc.).
(§3) (2) Construction of Cells Stably Expressing Human MT1 and Human MT2 Receptor
(§4) The introduction was carried out according to the attached instructions, using a Lipofectoamine (registered trademark) 2000 Reagent (Invitrogen, Inc.). Zeocin and hygromycin were used as a resistant drug, and the cell was incubated for 15 days at 0.02 mg/mL and 0.05 mg/mL, respectively, thereby acquiring drug-resistant clones.
(§5) (3) Measurement of Intracellular Ca^2+ Concentration by FLIPR (Registered Trademark)
(§6) The respective stably expressing cells were dispensed into 96-well poly-D-lysine-coated plates (Falcon Co.) to 40,000 cells/well the day before the experiment, and incubated overnight in a DMEM (Invitrogen, Inc.) medium including 10% FBS at 37° C. and 5% CO2. The medium was replaced with a loading buffer (washing solution (Hank's balanced salt solution (HBSS), 20 mM HEPES-NaOH, 2.5 mM probenecid) including Fluo-4AM (Dojindo Co.) at 4 μM), and incubated for 1 hour at 37° C. and 5% CO2. Thereafter, the cells were washed with a plate washer (ELx405, BIO-TEK Instrument, Inc.) set with the washing solution, and set in an intracellular Ca^2+ concentration measuring systems (FLIPR (registered trademark), Molecular Device Co.). The test compound was dissolved in the washing solution in advance, diluted to a final concentration of −12 to −5 log M, set in a FLIPR (registered trademark) device together with the cells, and added to the cells in the device. At this time, a change in the intracellular Ca^2+ concentrations was measured.
(§7) Ex represents Example No. of the test compound.

The target of a further data set is T1, human MT2 receptor (Homo sapiens, UniProt P49286).
T1 sequence (P49286 1-362): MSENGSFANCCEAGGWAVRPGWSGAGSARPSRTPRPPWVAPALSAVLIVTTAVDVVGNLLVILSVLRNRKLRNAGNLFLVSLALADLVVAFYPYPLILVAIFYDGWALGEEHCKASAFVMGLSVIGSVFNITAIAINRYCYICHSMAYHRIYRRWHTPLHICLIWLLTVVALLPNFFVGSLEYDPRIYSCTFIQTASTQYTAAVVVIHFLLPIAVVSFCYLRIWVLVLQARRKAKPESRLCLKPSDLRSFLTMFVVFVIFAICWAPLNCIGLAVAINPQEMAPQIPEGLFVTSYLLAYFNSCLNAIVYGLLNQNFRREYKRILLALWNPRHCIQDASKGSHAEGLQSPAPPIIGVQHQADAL
The data set is described as follows: Activation of human MT2 receptor in receptor-expressing HEK293 cells (intracellular Ca2+, FLIPR). Conditions: for Emax: HEK293, maximum reaction by ramelteon taken as 100%, solvent only 0%; for EC50: HEK293 cells stably expressing human MT2 and Gq/i chimeric G-protein, intracellular Ca2+ by FLIPR. It is filed as cell-based. The procedure:
as §1, §2, §3, §4, §5, §6, §7

The subject of a further data set is isolated urethra. The data set is described as follows: Isolated urethra contractile action. Conditions: test compound at 1 μM; contractile response by 10 μM phenylephrine as 100%; SD female rat urethra; read-out: Isolated urethra contraction (%). Also on record: species or system rat. On the procedure: Test Example 2 Isolated Urethra Contractile Action
(1) Evaluation Test on Urethra Contractile Action of Test Compound Using Isolated Urethra
The urethra was isolated from an SD female rat having a body weight of 100 to 500 g. The isolated urethra was incised longitudinally to give a rectangular strip specimen having a width of about 3 mm, which was suspended in the circular muscle direction in 10 mL of a tissue bath filled with a Krebs-Henseleit solution (pH 7.4). The Krebs-Henseleit solution was bubbled with 95% O2 and 5% CO2, and kept at 37° C. The resting tension was set to 0.5 g to record the isometric contraction. After the resting tension was stabilized, contraction was elicited by the addition of 10 μM phenylephrine. After washing and stabilizing, the test compound was added cumulatively to a final concentration of −12 to −5 log M to measure a contractile response. By taking the contractile response by 10 μM phenylephrine as 100%, the ratio of the contractile response in the concentration of the test compound at 1 μM was calculated.
as §7

For another data set, the system named is urethral pressure. The data set is described as follows: Effect of test compound on urethral pressure in anesthetized rats. It is filed as in vivo, rat. Conditions: 0.1 mg/kg intravenously, urethane-anesthetized SD female rats. The text has this:
Test Example 3 Test to Evaluate Effect of Test Compound on Urethral Pressure
It has been reported that an increase in the urethra pressure is useful for the treatment of urinary incontinence, particularly stress urinary incontinence (for example, Drugs, 64, 14, 1503-1516 (2004)). In order to confirm whether the compound of the present invention increases the urethra pressure and thus is useful for the treatment of urinary incontinence, particularly stress urinary incontinence, the following tests were carried out.
SD female rats were anesthetized with urethane and subjected to laparotomy. Then, the bladder apex was incised and a catheter was inserted from the bladder apex. Further, the catheter tip was ligated and fixed to be located in the proximal urethra portion. The catheter was connected to a pressure transducer and an infusion pump. Further, a catheter for administrating the compound was fitted into the femoral vein. Physiological saline was continuously infused into the urethra and the perfusion pressure in the urethra was measured. After the urethral pressure was stabilized, the test compound that had been dissolved in physiological saline, or physiological saline including 5% dimethylacetamide and 0.5% Cremophor was administered intravenously at 0.1 mg/kg, and a change in urethral pressures was measured.
Further, the results of administering an active metabolite of midodrine (ST-1059: purchased from CHEMIZON) (J. Urology, 118, 980-982 (1977)) which is an α1 adrenoceptor agonist and has an effect on stress urinary incontinence in rat doses (0.01 mg/kg) presumed to correspond to the clinical doses are referenced and shown in the Tables below. The increment value in the urethra pressures of ramelteon and the Example compounds of the present invention at the time of administration are shown in Table 4. Ex represents Example No. of the test compound.

Data set [1] in a line: CNS penetration: CSF to plasma unbound concentration ratio in rat. It is filed as in vivo. Conditions: CSF and plasma (unbound), iv, 15 minutes after intravenous administration, CCSF/Cplasma,u, read-out: Kp,uu,CSF,iv15min. On the procedure:
Test Example 4 Test for Evaluating CNS Penetration
(1) Measurement of Unbound Fraction (fp) in Rat Plasma
A test compound (100 μg/mL, 50% acetonitrile solution) at 1% (v/v) with respect to the amount of the plasma was added to rat plasma, and dispensed to a sample for a supernatant and a sample for the plasma. The sample for a supernatant was ultracentrifuged at 436,000×g and 37° C. for 140 minutes, and the sample for the plasma was incubated at 37° C. for 140 minutes.
After 140 minutes, the sample for a supernatant after the ultracentrifugation and the sample for the plasma were taken, and mixed with the blank plasma or the blank supernatant, respectively. Acetonitrile including an internal standard material was added to each of the samples, and after the centrifugation at 2150×g and 4° C. for 10 minutes the supernatant was injected into LC-MS/MS.
The unbound fraction in the plasma was calculated by the following equation.
(wherein fp: an unbound fraction in the plasma and D: a dilution rate of the plasma. fu,app=peak area ratio of supernatant sample/peak area ratio of the plasma sample, and peak area ratio=peak area of test compound/peak area of internal standard material).
(2) The CSF to Plasma Unbound Concentration Ratio in Rat
A 50% acetonitrile solution and an acetonitrile including internal standard material was added to the collected plasma or CSF. After centrifugation at 4° C. and 2150×g for 10 minutes, the supernatant was injected into LC-MS/MS, and the total concentration of the test compound in the plasma (Cplasma,t) and the concentration of the test compound in CSF (CCSF) were obtained. The unbound concentration in the plasma (Cplasma,u) of the test compound and the CSF-to plasma unbound concentration ratio (Kp,uu,CSF) of the test compound was calculated by the following equation.
as §7

The next data set has as its system 3T3. The data set is described as follows: In vitro 3T3 NRU phototoxicity test. It is filed as cell-based. On the procedure: Test Example 6 Drug Pharmacokinetic Test, Safety Pharmacology Test, and Toxicity Test
Using some Example compounds of the present invention, a drug Pharmacokinetic test, a safety pharmacology test, and a toxicity test were carried out.
(iii) For the toxicity test, for example, an in vitro phototoxicity test was carried out. The evaluation of the in vitro phototoxicity test was carried out in accordance with Guidance for industry photosafety testing, Center for Drug Evaluation and Research Food and Drug Administration, 2003, which is a guideline of FDA (U.S. Food and Drug Administration), and Note for guidance on photosafety testing (CPMP/SWP/398/01, 2002) which is a guideline of EMA (European Medicines Agency), and the method described in OECD guideline for testing of chemicals 432: In vitro 3T3 NRU phototoxicity test, 2004, which is a test method described in the report of OECD.

Sequence of human MT1 receptor (P48039 whole entry): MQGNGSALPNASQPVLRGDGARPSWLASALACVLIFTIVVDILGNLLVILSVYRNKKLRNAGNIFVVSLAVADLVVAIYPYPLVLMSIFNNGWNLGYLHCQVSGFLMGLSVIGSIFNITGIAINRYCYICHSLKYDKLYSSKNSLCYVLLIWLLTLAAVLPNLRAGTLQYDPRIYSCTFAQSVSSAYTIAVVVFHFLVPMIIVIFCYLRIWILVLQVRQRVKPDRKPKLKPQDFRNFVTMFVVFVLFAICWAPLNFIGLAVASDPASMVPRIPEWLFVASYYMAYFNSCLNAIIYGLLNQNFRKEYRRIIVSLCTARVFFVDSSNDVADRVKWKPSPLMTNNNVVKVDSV

A word on the Emax: it is the greatest response seen or fitted, relative to the assay's reference. A word on the EC50: it is the concentration needed to bring the measured effect to its halfway point. As for `CNC(=O)c1[nH]c2cc(F)c(OC)cc2c1CCNC(=O)C(F)F` [Ex 15], on human MT1 receptor, the Emax was 104% and the concentration giving a half-maximal response (EC50) was found to be 5.4 nM. On human MT2 receptor, this compound returned a maximum response (Emax) of 103% and an EC50 of 17 nM. The activation at 1 µM in the data set with isolated urethra was 261%. In addition, in the data set with urethral pressure, the “Increment value in the urethra pressures (mmHg)” value (shortened to “Increment value”) came to 8.6 ± 0.9 mmHg. Also, in data set [1], the Kp uu at 0.25 h was 0.07. In addition, the phototoxicity action entry in the data set with 3T3 was “no phototoxicity action”.
Regarding `CNC(=O)c1[nH]c2ccc(OC)cc2c1CCNC(C)=O` [Ex 1, 3-(2-acetamidoethyl)-5-methoxy-N-methyl-1H-indole-2-carboxamide], at human MT1 receptor, the Emax was found to be 104% and the concentration giving a half-maximal response (EC50) was found to be 12 nM. On human MT2 receptor, the maximal response (Emax) is 108% and the EC50 was 26 nM. The activation at 1 µM in the data set with isolated urethra stood at 128%. Besides, the “Increment value” value in the data set on urethral pressure amounted to 5.1 ± 0.6 mmHg. In data set [1], the Kp uu at 0.25 h worked out at 0.18. Besides, the phototoxicity action entry with 3T3 is on record as “no phototoxicity action”.
One may read the melting point as the temperature of the solid-liquid transition. In turn, `CNC(=O)c1[nH]c2cc(F)c(OC)cc2c1CCNC(=O)C(F)F` [Ex 57, 3-{2-[(difluoroacetyl)amino]ethyl}-6-fluoro-5-methoxy-N-methyl-1H-indole-2-carboxamide] displayed a melting point of 196 to 200 °C.
`CNC(=O)NCCc1c(C(=O)NC)[nH]c2ccc(OC)cc12` [Ex 8, 5-methoxy-N-methyl-3-{2-[(methylcarbamoyl)amino]ethyl}-1H-indole-2-carboxamide]: on human MT1 receptor, the Emax amounted to 124% and the concentration giving a half-maximal response (EC50) was 12 nM. On human MT2 receptor, this compound displayed an Emax of 119% and an EC50 of 19 nM. Besides, the “Increment value” value with urethral pressure was found to be 6.0 ± 0.4 mmHg. In data set [1], the Kp uu at 0.25 h came to 0.03. The phototoxicity action result in the data set on 3T3 is recorded as “no phototoxicity action”.
Turning to `CNC(=O)c1[nH]c2cc(F)c(OC)cc2c1CCNC(C)=O` [Ex 56, 3-(2-acetamidoethyl)-6-fluoro-5-methoxy-N-methyl-1H-indole-2-carboxamide], the melting point was 209 to 212 °C.

The record behind these values is US9376449B2, “Indole carboxamide derivative” (Astellas Pharma Inc., priority 2012, dated 2016).
